According to patent US20040072839A1, “1-Phenylalkylpiperazines” (priority 2002, published 2004):
Read-outs that look alike come from different tables or passages of the source.

Experiments:
[1] = test system: rhythmic bladder-voiding contractions in anaesthetised rats; test: Rhythmic bladder-voiding contractions induced by bladder filling in anaesthetised rats; format: in vivo, rat; conditions: intravenous administration; for ED50: Rattus norvegicus
Protocol: Female Sprague-Dawley rats weighing 225-275 g (Crl: CD® (SD) IGS BR, Charles River Italia) were used. The animals were housed with free access to food and water and maintained on a forced 12-hour alternating light-dark cycle at 22-24° C. for at least one week, except during the experiment. The activity on rhythmic bladder voiding contractions was evaluated according to the method of Dray (Dray J., Pharmacol. Methods, 13:157, 1985), with some modifications as in Guarneri (Guarneri, Pharmacol. Res. 27:173, 1993). Briefly, rats were anaesthetised by subcutaneous injection of 1.25 g/kg (5 ml/kg) urethane, after which the urinary bladder was catheterised via the urethra using PE 50 polyethylene tubing filled with physiological saline. The catheter was tied in place with a ligature around the external urethral orifice and was connected to conventional pressure transducers (Statham P23 ID/P23 XL). […] The bladder was then filled via the recording catheter by incremental volumes of warm (37° C.) saline until reflex bladder-voiding contractions occurred (usually 0.8-1.5 ml). For intravenous injection of bioactive compounds, PE 50 polyethylene tubing filled with physiological saline was inserted into the jugular vein.
From the cystometrogram, the number of contractions recorded 15 minutes before (basal values) and after treatment, as well as the mean amplitude of these contractions (mean height of the peaks in mmHg), was evaluated.
Since most compounds produced an effect that was relatively rapid in onset and lead to a complete cessation of bladder contractions, bioactivity was conveniently estimated by measuring the duration of bladder quiescence (i.e., the length of the time during which no contractions occured). The number of tested animals showing a reduction in the number of contractions higher than 30% of that observed in the basal period was also recorded.
To compare the potency of the tested compounds for inhibiting the bladder voiding contractions, equieffective doses that result in the disappearance of contractions for a time of 10 minutes (ED10min) were computed by means of linear regression using the least square method. The extrapolated doses which induces a reduction in the number of contractions greater than 30% in 50% of the treated rats (ED50) was evaluated by the method of Bliss (Bliss C. I., Quart J. Pharm. Pharmacol. 11, 192-216, 1938).
Data represent the ED10min values (the extrapolated dose inducing 10 minutes of disappearance of the contractions), the ED50 (frequency) values (the extrapolated doses inducing a reduction of the number of contractions >30% in 50% of treated rats), and the ED50 (amplitude) values (the extrapolated doses inducing a 30% reduction of amplitude of the contractions in 50% of treated rats).

[2] = target: T1, human 5-HT1A-serotonergic receptor (Homo sapiens, UniProt P08908); test: Radioligand binding to recombinant 5-HT1A receptors ([3H]8-OH-DPAT, HeLa cell membranes); conditions: 1 nM [3H]8-OH-DPAT; Ki from IC50 by Cheng & Prusoff; read-out: Ki, binding affinity for 5-HT1A receptors
T1 construct: expressed in transfected cells; host or cells: HeLa (human), stably transfected; membrane preparation
T1 sequence (P08908 1-422): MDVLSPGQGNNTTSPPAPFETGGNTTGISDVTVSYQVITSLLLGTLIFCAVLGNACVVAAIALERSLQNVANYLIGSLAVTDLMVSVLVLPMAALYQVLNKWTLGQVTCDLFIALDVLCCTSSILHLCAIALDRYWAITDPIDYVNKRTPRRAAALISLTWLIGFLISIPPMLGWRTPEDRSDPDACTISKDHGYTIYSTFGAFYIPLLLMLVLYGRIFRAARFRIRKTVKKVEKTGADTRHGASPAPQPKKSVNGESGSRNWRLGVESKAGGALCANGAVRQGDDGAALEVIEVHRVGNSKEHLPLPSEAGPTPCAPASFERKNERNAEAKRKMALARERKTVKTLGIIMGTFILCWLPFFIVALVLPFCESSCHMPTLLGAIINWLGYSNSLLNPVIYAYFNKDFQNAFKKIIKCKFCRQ
Protocol: Genomic clone coding for the human 5-HT1A-serotonergic receptor was stably transfected in a human cell line (HeLa). HeLa cells were grown as monolayers in Dulbecco's modified Eagle medium (DMEM), containing 10% foetal bovine serum, gentamycin (0.1 mg/ml) and 5% carbon dioxide, at 37° C. The cells were detached from the growth flask at 95% confluence by a cell scraper and were lysed in cold 5 mM Tris and 5 mM EDTA buffer (pH 7.4). The homogenates were centrifuged at 40000×g×20 minutes and the pellets were resuspended in a small volume of cold 5 mM Tris and 5 mM EDTA buffer (pH 7.4) and immediately frozen and stored at −70° C. until use. On the day of experiment, the cell membranes were resuspended in incubation buffer: 50 mM Tris HCl (pH 7.4), 2.5 mM MgCl2, […] (Fargin et al., Nature 335, 358-360, 1988). The membranes were incubated in a final volume of 1 ml for 30 minutes at 30° C. with 1 nM [^3H]8-OH-DPAT, in the absence or presence of the test compounds. Non-specific binding was determined in the presence of 10 μM 5-HT. Incubation was stopped by addition of cold Tris-HC1 buffer and rapid filtration through a 0.2%-polyethyleneimine-pretreated Whatman-GF/B or Schleicher-&-Schuell-GF52 filter.
The affinities of the tested compounds were evaluated as inhibition of specific binding of the radioligand to 5-HT1A receptors (IC50) by using the non-linear curve-fitting program Allfit (De Lean et al., Am. J. Physiol. 235, E97-E102 (1978). The IC50 value was converted to an affinity constant (Ki) by the equation of Cheng & Prusoff (Cheng Y. C., Prusoff W. H., Biochem. Pharmacol. 22, 3099-3108 (1973)).

5-HT1A receptors = target: T2, 5-HT1A receptors (Rattus norvegicus, UniProt P19327); test: Inhibition of stereotypy (rhythmic forepaw treading) induced by 8-OH-DPAT in rats (post-synaptic antagonism); format: in vivo; conditions: for % Inhibition of forepaw treading, 1 h / % Inhibition of forepaw treading, 4 h: 10 mg/kg p.o.; for % Inhibition of forepaw treading, 1 h: given 1 h before 8-OH-DPAT (1 mg/kg s.c.); for % Inhibition of forepaw treading, 4 h: given 4 h before 8-OH-DPAT (1 mg/kg s.c.)
T2 construct: stereotyped forepaw treading induced in rats by subcutaneous injection of 8-OH-DPAT; from tissue; host or cells: whole animal (male Sprague-Dawley rats), endogenous post-synaptic receptors
T2 sequence (P19327 1-422): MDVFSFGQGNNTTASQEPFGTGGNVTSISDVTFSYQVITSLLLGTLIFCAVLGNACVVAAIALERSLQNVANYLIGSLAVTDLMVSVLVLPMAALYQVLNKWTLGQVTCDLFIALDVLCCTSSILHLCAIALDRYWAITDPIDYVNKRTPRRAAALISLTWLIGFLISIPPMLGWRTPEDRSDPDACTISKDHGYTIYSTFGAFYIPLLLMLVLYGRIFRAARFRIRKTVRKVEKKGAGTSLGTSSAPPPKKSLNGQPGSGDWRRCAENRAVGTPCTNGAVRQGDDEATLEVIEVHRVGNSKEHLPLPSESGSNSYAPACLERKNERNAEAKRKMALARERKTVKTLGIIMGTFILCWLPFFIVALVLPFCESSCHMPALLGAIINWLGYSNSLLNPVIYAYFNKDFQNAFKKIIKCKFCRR
Protocol: The inhibitory effect of 5-HT1A-receptor antagonists on stereotyped forepaw treading induced in rats by subcutaneous injection of 8-OH-DPAT was evaluated by the method of Tricklebank (Tricklebank et al., Eur. J. Pharmacol., 117: 15, 1985) with minor modifications as described below.
Male Sprague-Dawley rats[Crl: CD® (SD) IGS BR] weighing 150-175 g from Charles River Italia were used. The animals were housed with free access to food and water and maintained on a forced 12-hour-light/12-hour-dark cycle at 22-24° C. of temperature. On the day of the experiment, the rats were placed singly in clear plastic containers, 10-15 minutes before administration of the vehicle or compounds to be tested. For evaluation of antagonistic activity after oral administration, the compounds were administered 1 and 4 hours before induction of stereotypy by 8-OH-DPAT (1 mg/kg subcutaneously). Observation sessions last 30 seconds and were begun 3 minutes after 8-OH-DPAT treatment and repeated every 3 minutes over a period of 15 minutes.
The appearance of the symptom induced by postsynaptic stimulation of 5-HT1A receptors was noted, and the intensity was scored using an intensity scale in which: 0=absent, 1=equivocal, 2=present and 3=intense. Behavioural scores for treated rats were accumulated throughout the observation time (5 observation periods) and expressed as mean values of 4 rats/dose. Change in mean values of treated animals in comparison with control (vehicle) group, expressed as per-cent inhibition, were used to quantify the antagonistic activity.

[3] = urethane-anaesthetised female rats, read-out: ED50 (frequency) (extrapolated dose inducing a reduction of the number of contractions >30% in 50% of treated rats)
[4] = urethane-anaesthetised female rats

SMILES | ED50 [1, 3] [mg/kg] | ED10 min (extrapolated dose inducing 10 minutes of disappearance of the contractions) [1, 4] [mg/kg] | Ki [2] [nM] | % Inhibition of forepaw treading, 1 h (5-HT1A receptors) [%] | % Inhibition of forepaw treading, 4 h (5-HT1A receptors) [%] | inhibition of stereotypy induced by 8-OH-DPAT (in words) (5-HT1A receptors; oral administration) | ED50 ([1]; n.a. = not active, no significant reduction of the height of the peaks, read-out: ED50 (amplitude) (extrapolated dose inducing a 30% reduction of amplitude of the contractions in 50% of treated rats)) [mg/kg]
CN1CC[C@]23c4c5ccc(O)c4O[C@H]2[C@@H](O)C=C[C@H]3[C@H]1C5 [Morphine] | 0.03 | 0.05 |  |  |  |  | 
COc1ccccc1N1CCN(CC[C@H](c2ccccc2F)[C@@H](OC(C)=O)C2CCCCC2)CC1 (racemic) [Example 45, (RS,SR) 1-[4-Acetoxy-4-cyclohexyl-3-(2-fluorophenyl)butyl]-4-(2-methoxyphenyl)piperazine] | 0.127 | 0.584 | 0.54 | 100 | 81 | potent and long-lasting inhibition | 
CC#CC(O)C(CCN1CCN(c2cccc3c2OCCO3)CC1)c1ccccc1 (stereo not drawn) [Example 31, 1-[5-(2,3-Dihydro-1,4-benzodioxinyl)]-4-(4-hydroxy-3-phenylhept-5-ynyl)piperazine] |  |  | 2.71 | 60 | 18 |  | 
CCNC(=O)O[C@@H](C1CCCCC1)[C@H](CCN1CCN(c2ccccc2OC)CC1)c1ccccc1F (racemic) [Example 47, (RS,SR) 1-[4-Cyclohexyl-4-ethylaminocarbonyloxy-3-(2-fluorophenyl)butyl]-4-(2-methoxyphenyl)piperazine] |  |  | 0.85 | 56 | 58 |  | 
COc1cc(F)ccc1N1CCN(CCC(c2ccccc2C#N)C(O)C2CCCCC2)CC1 (stereo not drawn) [Example 16, 1-[3-(2-Cyanophenyl)-4-cyclohexyl-4-hydroxybutyl]-4-(4-fluoro-2-methoxyphenyl)piperazine] |  |  | 0.9 | 40 | 17 |  | 
COc1ccccc1N1CCN(CC[C@H](c2ccccc2F)[C@@H](OC(N)=O)C2CCCCC2)CC1 (racemic) [Example 48, (RS,SR) 1-[4-Aminocarbonyloxy-4-cyclohexyl-3-(2-fluorophenyl)butyl]-4-(2-methoxyphenyl)piperazine] |  |  | 0.36 | 90 | 74 |  | 
C=CC(OC)C(CCN1CCN(c2cccc3c2OCCO3)CC1)c1ccccc1OC(F)(F)F (stereo not drawn) [Example 9, 1-[5-(2,3-Dihydro-1,4-benzodioxinyl)]-4-[4-methoxy-3-(2-trifluoromethoxyphenyl)-5-hexenyl]piperazine] |  |  | 1.9 |  |  |  | 
C=CC(O)C(CCN1CCN(c2cccc3c2OCCO3)CC1)c1ccccc1 (stereo not drawn) [Example 28, 1-[5-(2,3-Dihydro-1,4-benzodioxinyl)]-4-(4-hydroxy-3-phenylhex-5-enyl]piperazine] |  |  | 2.92 |  |  |  | 
CCN(CC)CC#CCOC(=O)C(O)(c1ccccc1)C1CCCCC1 (stereo not drawn) [Oxybutynin] | > 10 | 7.77 |  |  |  |  | 0.24
CCCC(OC)C(CCN1CCN(c2cccc3c2OCCO3)CC1)c1ccccc1 (stereo not drawn) [Example 10, 1-[5-(2,3-Dihydro-1,4-benzodioxinyl)]-4-[(4-methoxy-3-phenyl)heptyl]piperazine] |  |  | 1.68 |  |  |  | 
COc1cc(F)ccc1N1CCN(CCC(c2ccccc2C(=O)N(C)C)C(O)C2CCCCC2)CC1 (stereo not drawn) [Example 42, 1-[4-Cyclohexyl-3-(2-dimethylaminocarbonylphenyl)-4-hydroxybutyl]-4-(4-fluoro-2-methoxyphenyl)piperazine] |  |  | 4.87 |  |  |  | 
